From patent EP0908457B1, “3-(1,2-benzisothiazol- and isoxazol-5-Y1)-2,4(1H,3H)-pyrimidinedione or thione and 3-(1,2-benzisothiazol- and isoxazol-5-y1)-4(3H)-pyrimidinone or thione herbicidal agents” (BASF AKTIENGESELLSCHAFT, priority 1997, dated 1999)

What was measured:
[1] = system: Cyperus serotinus, Rottb.; test: Preemergence weed control under flooded paddy conditions, CYPSE (Flatsedge); format: in vivo; conditions: preemergence, rated three to four weeks after treatment; also: meaning of each grade not given here
[2] = system: Cyperus iria; test: Preemergence weed control under flooded paddy conditions, CYPIR (Rice Flatsedge); format: in vivo; conditions: preemergence, flooded paddy, rated three to four weeks after treatment; also: meaning of each grade not given here
[3] = system: Echinochloa oryzoides (Ard.) Fritsch.; test: Preemergence weed control under flooded paddy conditions, ECHORC (Watergrass (Calif.)); format: in vivo; conditions: preemergence, flooded paddy, rated three to four weeks after treatment; also: meaning of each grade not given here
[4] = system: Sagittaria pygmaea, L.; test: Preemergence weed control under flooded paddy conditions, SAGPY (Arrowhead (Pygmaea)); format: in vivo; conditions: preemergence, flooded paddy, rated three to four weeks after treatment; also: meaning of each grade not given here
[5] = system: Monochoria vaginalis, Presl.; test: Preemergence weed control under flooded paddy conditions, MOOVA (Monochoria); format: in vivo; conditions: preemergence, flooded paddy, rated three to four weeks after treatment; also: meaning of each grade not given here
[6] = system: Oryza sativa, (L.) Tebonnet; test: Rice tolerance to post-transplant applications under flooded paddy conditions (Example 187), ORYSAT (Rice, Tebonnet); conditions: rated three to four weeks after treatment

Compound | herbicidal effect rating, CYPSE ([1]; 0.0625 kg/ha) | herbicidal effect rating, CYPSE ([1]; 0.2500 kg/ha) | herbicidal effect rating, CYPIR ([2]; 0.0313 kg/ha) | herbicidal effect rating, CYPIR ([2]; 0.0625 kg/ha) | herbicidal effect rating, CYPIR ([2]; 0.1250 kg/ha) | herbicidal effect rating, CYPIR ([2]; 0.2500 kg/ha) | herbicidal effect rating, ECHORC ([3]; 0.0313 kg/ha) | herbicidal effect rating, ECHORC ([3]; 0.0625 kg/ha) | herbicidal effect rating, ECHORC ([3]; 0.1250 kg/ha) | herbicidal effect rating, ECHORC ([3]; 0.2500 kg/ha) | herbicidal effect rating, SAGPY ([4]; 0.0313 kg/ha) | herbicidal effect rating, SAGPY ([4]; 0.0625 kg/ha) | herbicidal effect rating, SAGPY ([4]; 0.1250 kg/ha) | herbicidal effect rating, SAGPY ([4]; 0.2500 kg/ha) | herbicidal effect rating, MOOVA ([5]; 0.0313 kg/ha) | herbicidal effect rating, MOOVA ([5]; 0.0625 kg/ha) | herbicidal effect rating, MOOVA ([5]; 0.1250 kg/ha) | herbicidal effect rating, MOOVA ([5]; 0.2500 kg/ha) | herbicidal effect rating, ORYSAT (rice tolerance) ([6]; 0.0313 kg/ha) | herbicidal effect rating, ORYSAT (rice tolerance) ([6]; 0.0625 kg/ha) | other results
COc1ccccc1Oc1noc2ccc(-n3c(=O)cc(C(F)(F)F)n(C)c3=O)cc12 [Example 43, 3-[3-(o-Methoxyphenoxy)-1,2-benzisoxazol-5-yl]-1-methyl-6-(trifluoromethyl)-2,4(1H,3H)-pyrimidinedione] | 0.0 | 0.0 | 0.0 | 0.0 | 0.0 | 0.0 | 0.0 | 0.0 | 2.0 | 8.0 | 0.0 | 0.0 | 0.0 | 0.0 | 6.0 | 9.0 | 9.0 | 9.0 | 1.0 | 2.0 | herbicidal effect rating, CYPSE ([1]; 0.0313 kg/ha): 0.0; herbicidal effect rating, CYPSE ([1]; 0.1250 kg/ha): 0.0; herbicidal effect rating, ORYSAT (rice tolerance) ([6]; 0.1250 kg/ha): 3.0; herbicidal effect rating, ORYSAT (rice tolerance) ([6]; 0.2500 kg/ha): 3.0
CCc1ccc(OC)c(-c2nsc3ccc(-n4c(=O)cc(C(F)(F)F)n(C)c4=O)cc23)c1 [Example 45, 3-[3-(5-Ethyl-2-methoxyphenyl)-1,2-benzisothiazol-5-yl]-1-methyl-6-(trifluoromethyl)-2,4(1H,3H)-pyrimidinedione] | 2.0 | 9.0 | 6.0 | 9.0 | 9.0 | 9.0 | 9.0 | 9.0 | 9.0 | 9.0 | 0.0 | 0.0 | 4.0 | 6.0 | 9.0 | 9.0 | 9.0 | 9.0 | 2.0 | 2.0 | herbicidal effect rating, CYPSE ([1]; 0.1250 kg/ha): 9.0; herbicidal effect rating, ORYSAT (rice tolerance) ([6]; 0.1250 kg/ha): 3.0; herbicidal effect rating, ORYSAT (rice tolerance) ([6]; 0.2500 kg/ha): 3.0
COc1ccc(C(C)C)cc1-c1nsc2ccc(-n3c(=O)cc(C(F)(F)F)n(C)c3=O)cc12 [Example 46, 3-[3-(5-Isopropyl-2-methoxyphenyl)-1,2-benzisothiazol-5-yl]-1-methyl-6-(trifluoromethyl)-2,4(1H,3H)-pyrimidinedione] | 0.0 | 2.0 | 2.0 | 6.0 | 9.0 | 9.0 | 9.0 | 9.0 | 9.0 | 9.0 | 0.0 | 0.0 | 2.0 | 7.0 | 9.0 | 9.0 | 9.0 | 9.0 | 1.0 | 1.0 | herbicidal effect rating, CYPSE ([1]; 0.0313 kg/ha): 0.0; herbicidal effect rating, ORYSAT (rice tolerance) ([6]; 0.1250 kg/ha): 2.0; herbicidal effect rating, ORYSAT (rice tolerance) ([6]; 0.2500 kg/ha): 3.0
COC(=O)C(C)Oc1ccccc1Oc1noc2ccc(-n3c(=O)cc(C(F)(F)F)n(C)c3=O)cc12 (stereo not shown) [Example 47, Methyl 2-{o-{{5-[3,6-dihydro-3-methyl-2,6-dioxo-4-(trifluoromethyl)-1(2H)-pyrimidinyl]-1,2-benzisoxazol-3-yl}oxy}phenoxy}propionate] | 0.0 | 2.0 | 0.0 | 0.0 | 0.0 | 1.0 | 0.0 | 1.5 | 3.5 | 5.0 | 0.0 | 0.0 | 0.0 | 0.0 | 4.5 | 4.5 | 5.5 | 9.0 | 1.5 | 2.5 | herbicidal effect rating, CYPSE ([1]; 0.0313 kg/ha): 0.0; herbicidal effect rating, CYPSE ([1]; 0.1250 kg/ha): 1.0; herbicidal effect rating, ORYSAT (rice tolerance) ([6]; 0.1250 kg/ha): 4.0; herbicidal effect rating, ORYSAT (rice tolerance) ([6]; 0.2500 kg/ha): 6.0
Cc1ccc(OCC#N)c(-c2nsc3ccc(-n4c(=O)cc(C(F)(F)F)n(C)c4=O)cc23)c1 [Example 57, 3-{3-[6-(Cyanomethoxy)-m-tolyl]-1,2-benzisothiazol-5-yl}-1-methyl-6-(trifluoromethyl)-2,4(1H,3H)-pyrimidinedione] | 0.0 | 0.0 | 9.0 | 9.0 | 9.0 | 9.0 | 9.0 | 9.0 | 9.0 | 9.0 | 0.0 | 0.0 | 0.0 | 0.0 | 9.0 | 9.0 | 9.0 | 9.0 | 3.0 | 4.0 | herbicidal effect rating, CYPSE ([1]; 0.0313 kg/ha): 0.0; herbicidal effect rating, CYPSE ([1]; 0.1250 kg/ha): 0.0; herbicidal effect rating, ORYSAT (rice tolerance) ([6]; 0.1250 kg/ha): 5.0; herbicidal effect rating, ORYSAT (rice tolerance) ([6]; 0.2500 kg/ha): 6.0
Cc1ccc(OC(C)C#N)c(-c2nsc3ccc(-n4c(=O)cc(C(F)(F)F)n(C)c4=O)cc23)c1 (stereo not shown) [Example 58, 3-{3-[6-(1-Cyanoethoxy)-m-tolyl]-1,2-benzisothiazol-5-yl}-1-methyl-6-(trifluoromethyl)-2,4(1H,3H)-pyrimidinedione] | 0.0 | 0.0 | 9.0 | 9.0 | 9.0 | 9.0 | 9.0 | 9.0 | 9.0 | 9.0 | 0.0 | 0.0 | 0.0 | 0.0 | 9.0 | 9.0 | 9.0 | 9.0 | 2.0 | 2.0 | herbicidal effect rating, CYPSE ([1]; 0.0313 kg/ha): 0.0; herbicidal effect rating, CYPSE ([1]; 0.1250 kg/ha): 0.0; herbicidal effect rating, ORYSAT (rice tolerance) ([6]; 0.1250 kg/ha): 3.0; herbicidal effect rating, ORYSAT (rice tolerance) ([6]; 0.2500 kg/ha): 5.0
Cc1ccc(OC(C)C)c(-c2nsc3ccc(-n4c(=O)cc(C(F)(F)F)n(C)c4=O)cc23)c1 [Example 59, 3-[3-(6-Isopropoxy-m-tolyl)-1,2-benzisothiazol-5-yl]-1-methyl-6-(trifluoromethyl)-2,4(1H,3H)-pyrimidinedione] | 0.0 | 0.0 | 7.0 | 7.0 | 8.0 | 9.0 | 9.0 | 9.0 | 9.0 | 9.0 | 0.0 | 0.0 | 0.0 | 0.0 | 9.0 | 9.0 | 9.0 | 9.0 | 2.0 | 3.0 | herbicidal effect rating, CYPSE ([1]; 0.0313 kg/ha): 0.0; herbicidal effect rating, CYPSE ([1]; 0.1250 kg/ha): 0.0; herbicidal effect rating, ORYSAT (rice tolerance) ([6]; 0.1250 kg/ha): 4.0; herbicidal effect rating, ORYSAT (rice tolerance) ([6]; 0.2500 kg/ha): 4.0
